These results are taken from US8269000B2, “Substituted pyrimidine and triazine compounds” (Gruenenthal GmbH, priority 2008, dated 2012).

The test addresses T1, rat B1R (Rattus norvegicus, UniProt P97583).
T1 construct: expressed in transfected cells; host or cells: CHO K1 cells
T1 sequence (P97583 1-337): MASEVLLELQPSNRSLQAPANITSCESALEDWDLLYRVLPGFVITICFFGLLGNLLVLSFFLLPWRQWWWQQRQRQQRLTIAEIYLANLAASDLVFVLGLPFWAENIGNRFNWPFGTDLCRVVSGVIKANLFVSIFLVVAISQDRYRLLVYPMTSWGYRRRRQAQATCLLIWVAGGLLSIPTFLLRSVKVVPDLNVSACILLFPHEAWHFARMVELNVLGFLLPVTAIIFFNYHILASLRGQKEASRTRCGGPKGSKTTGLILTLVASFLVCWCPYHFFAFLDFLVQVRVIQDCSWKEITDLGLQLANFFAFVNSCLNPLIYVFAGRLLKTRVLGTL
Kind of test: FLIPR Ca2+ functional study on bradykinin receptor 1 (rB1R CHO K1 cells). The test is classed as cell-based. The conditions noted are these: for inhibition at 10 µM: CHO-K1, % inhibition rat B1R at 10 μM, read-out: % inh. (rat B1R) 10 μM. The procedure, abridged: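 Antagonism was calculated as % of maximal inhibition of the Ca2+ rise triggered by agonist at EC80 (Lys-Des-Arg9-bradykinin for hB1R, Des-Arg9-bradykinin for rB1R), added 10-20 min after test compound (10 μM or serial dilutions for IC50) to Fluo-4-loaded transfected CHO K1 cells on FLIPR. Duplicates or triplicates, ≥2 independent runs.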

As to `COc1cc(C)c(S(=O)(=O)N2CCCCC2COc2ccnc(N3CCCN(Cc4ccccn4)CC3)n2)c(C)c1` (stereo not shown) [H_CC-042, 1-[4-[[1-[(4-methoxy-2,6-dimethyl-phenyl)sulfonyl]-piperidin-2-yl]-methoxy]-pyrimidin-2-yl]-4-(pyridin-2-yl-methyl)-[1,4]diazepan], the inhibition at 10 µM was found to be 61%.

Turning to `CCCCC1(N(C)C)CCN(CCN(C)c2ccnc(OCC3CCCCN3S(=O)(=O)c3c(C)cc(OC)cc3C)n2)CC1` (stereo not shown) [G_CC-074, 2-(4-butyl-4-dimethylamino-piperidin-1-yl)-ethyl-[2-[[1-[(4-methoxy-2,6-dimethyl-phenyl)sulfonyl]-piperidin-2-yl]-methoxy]-pyrimidin-4-yl]-methyl-amine], the inhibition at 10 µM came out at 102%.

Take `COc1cc(C)c(S(=O)(=O)N2CCC[C@H]2COc2ccnc(N3CCC(CCN4CCCC4)CC3)n2)c(C)c1` [H_CC-009, 4-[[(2S)-1-(4-methoxy-2,6-dimethylphenyl)sulfonyl-2-pyrrolidinyl]methoxy]-2-[4-(2-1-pyrrolidinylethyl)-1-piperidinyl]pyrimidine]: the inhibition at 10 µM turned out to be 85%.

For the molecule `COc1cc(C)c(S(=O)(=O)N(C)CCOc2ccnc(N3CC4CC3CN4Cc3ccncc3)n2)c(C)c1` (stereo not shown) [H_CC-034, 4-methoxy-N,2,6-trimethyl-N-[2-[[2-[2-(4-pyridylmethyl)-2,5-diazabicyclo[2.2.1]heptan-5-yl]-4-pyrimidinyl]oxy]ethyl]benzenesulfonamide], the inhibition at 10 µM was found to be 74%.

Consider `COc1cc(C)c(S(=O)(=O)N2CCCCC2COc2nccc(N3CC4CC3CN4Cc3ccncc3)n2)c(C)c1` (stereo not shown) [G_CC-056, 5-[2-[[1-(4-methoxy-2,6-dimethylphenyl)sulfonyl-2-piperidinyl]methoxy]-4-pyrimidinyl]-2-(4-pyridylmethyl)-2,5-diazabicyclo[2.2.1]heptane], for which the inhibition at 10 µM was 98%.

On to `COc1cc(C)c(S(=O)(=O)N2CCC[C@H]2COc2ccnc(N3CCC(OCCN4CCCC4)(c4cccc(F)c4)CC3)n2)c(C)c1` [H_CC-092, 2-[4-(3-fluorophenyl)-4-(2-pyrrolidin-1-yl-ethoxy)-piperidin-1-yl]-4-[[(2S)-1-[(4-methoxy-2,6-dimethyl-phenyl)sulfonyl]-pyrrolidin-2-yl]-methoxy]-pyrimidine], for which the inhibition at 10 µM stood at 50%.

On to `COc1cc(C)c(S(=O)(=O)N(C)C(COc2ccnc(N3[C@@H]4CC[C@H]3CC(Oc3ccncc3)C4)n2)c2ccccc2)c(C)c1` (stereo partly drawn) [H_CC-093, 4-methoxy-N,2,6-trimethyl-N-[1-phenyl-2-[2-[(1S,5R)-3-pyridin-4-yloxy-8-azabicyclo[3.2.1]octan-8-yl]-pyrimidin-4-yl]oxy-ethyl]-benzenesulfonic acid amide], for which the inhibition at 10 µM was determined as 63%.

With `COc1cc(C)c(S(=O)(=O)N2CCCCC2COc2nccc(N3CCC4(CCN(Cc5ccccc5)C4)C3)n2)c(C)c1` (stereo not shown) [G_CC-022, 3-benzyl-7-[2-[[1-(4-methoxy-2,6-dimethylphenyl)sulfonyl-2-piperidinyl]methoxy]-4-pyrimidinyl]-3,7-diazaspiro[4.4]nonane], the inhibition at 10 µM worked out at 104%.

For `COc1cc(C)c(S(=O)(=O)N(C)C(COc2nccc(N3CCCC3Cc3ccccn3)n2)c2ccccc2)c(C)c1` (stereo not shown) [G_CC-133, 4-methoxy-N,2,6-trimethyl-N-[1-phenyl-2-[4-[2-(pyridin-2-yl-methyl)-pyrrolidin-1-yl]-pyrimidin-2-yl]oxy-ethyl]benzenesulfonic acid amide], the inhibition at 10 µM came to 78%.

For `COc1cc(C)c(S(=O)(=O)N2CCCC(Oc3nccc(N4CC5CC4CN5Cc4ccncc4)n3)C2)c(C)c1` (stereo not shown) [G_CC-057, 5-[2-[[1-(4-methoxy-2,6-dimethylphenyl)sulfonyl-3-piperidinyl]oxy]-4-pyrimidinyl]-2-(4-pyridylmethyl)-2,5-diazabicyclo[2.2.1]heptane], the inhibition at 10 µM was found to be 90%.

For `CCCCC1(N(C)C)CCN(c2ccnc(OC[C@@H]3CCCN3S(=O)(=O)c3c(C)cc(OC)cc3C)n2)CC1` [G_CC-087, [4-butyl-1-[2-[[(2S)-1-[(4-methoxy-2,6-dimethyl-phenyl)sulfonyl]-pyrrolidin-2-yl]-methoxy]-pyrimidin-4-yl]-piperidin-4-yl]-dimethyl-amine], the inhibition at 10 µM is 101%.

With `COc1cc(C)c(S(=O)(=O)N2CCCCC2COc2ccnc(N3CCN(C)CC3)n2)c(C)c1` (stereo not shown) [H_CC-003, 4-[[1-(4-methoxy-2,6-dimethylphenyl)sulfonyl-2-piperidinyl]methoxy]-2-(4-methyl-1-piperazinyl)pyrimidine], the inhibition at 10 µM amounted to 58%.

Regarding `COc1cc(C)c(S(=O)(=O)N2CCCCC2COc2ccnc(N3CCC4(CCN(Cc5ccc(F)cc5)C4=O)CC3)n2)c(C)c1` (stereo not shown) [H_CC-030, 3-[(4-fluorophenyl)methyl]-8-[4-[[1-(4-methoxy-2,6-dimethylphenyl)sulfonyl-2-piperidinyl]methoxy]-2-pyrimidinyl]-3,8-diazaspiro[4.5]decan-4-one], the inhibition at 10 µM was 49%.

For the molecule `COc1cc(C)c(S(=O)(=O)N2CCC[C@H]2COc2nccc(N3CC4CC3CN4Cc3ccncc3)n2)c(C)c1` (stereo partly drawn) [G_CC-058, 5-[2-[[(2S)-1-(4-methoxy-2,6-dimethylphenyl)sulfonyl-2-pyrrolidinyl)methoxy]-4-pyrimidinyl]-2-(4-pyridylmethyl)-2,5-diazabicyclo[2.2.1]heptane], the inhibition at 10 µM was 93%.

Turning to `COc1cc(C)c(S(=O)(=O)N2CCCCC2COc2nccc(N(C)CCN3CCC(O)(c4cccnc4)CC3)n2)c(C)c1` (stereo not shown) [G_CC-106, 1-[2-[[2-[[1-[(4-methoxy-2,6-dimethyl-phenyl)sulfonyl]-piperidin-2-yl]-methoxy]-pyrimidin-4-yl]-methyl-amino]ethyl]-4-pyridin-3-yl-piperidin-4-ol], the inhibition at 10 µM turned out to be 95%.

For the molecule `COc1cc(C)c(S(=O)(=O)N2CCCCC2COc2nccc(N3CCC(Oc4cnccn4)CC3)n2)c(C)c1` (stereo not shown) [G_CC-079, 2-[[1-[(4-methoxy-2,6-dimethyl-phenyl)sulfonyl]-piperidin-2-yl]-methoxy]-4-(4-pyrazin-2-yloxy-piperidin-1-yl)-pyrimidine], the inhibition at 10 µM was 98%.

Take `COc1cc(C)c(S(=O)(=O)N2CCC[C@H]2COc2nccc(N3CCN(c4ncccn4)CC3)n2)c(C)c1` [G_CC-018, 2-[[(2S)-1-(4-methoxy-2,6-dimethylphenyl)sulfonyl-2-pyrrolidinyl]methoxy]-4-[4-(2-pyrimidinyl)-1-piperazinyl]pyrimidine]: the inhibition at 10 µM stood at 97%.

As for `COc1cc(C)c(S(=O)(=O)N(C)CCOc2nccc(N3CCC(O)(c4cccnc4)CC3)n2)c(C)c1` [G_CC-008, N-[2-[[4-[4-hydroxy-4-(3-pyridyl)-1-piperidinyl]-2-pyrimidinyl]oxy]ethyl]-4-methoxy-N,2,6-trimethylbenzenesulfonamide], the inhibition at 10 µM stood at 59%.

For the molecule `CCCCC1(N(C)C)CCN(c2ccnc(OCC3CCCCN3S(=O)(=O)c3c(C)cc(OC)cc3C)n2)CC1` (stereo not shown) [G_CC-069, [4-butyl-1-[2-[[1-[(4-methoxy-2,6-dimethyl-phenyl)sulfonyl]-piperidin-2-yl]-methoxy]-pyrimidin-4-yl]-piperidin-4-yl]-dimethyl-amine], the inhibition at 10 µM worked out at 102%.

For `COc1cc(C)c(S(=O)(=O)N2CC(Oc3nccc(N4CCC(O)(c5cccnc5)CC4)n3)C2)c(C)c1` [G_CC-128, 1-[2-[1-[(4-methoxy-2,6-dimethyl-phenyl)sulfonyl]-azetidin-3-yl]oxy-pyrimidin-4-yl]-4-pyridin-3-yl-piperidin-4-ol], the inhibition at 10 µM was found to be 57%.

For the molecule `COc1cc(C)c(S(=O)(=O)N2CCCCC2COc2ccnc(N3[C@@H]4CC[C@H]3CC(Oc3ccncc3)C4)n2)c(C)c1` (stereo partly drawn) [H_CC-050, (1S,5R)-8-[4-[[1-[(4-methoxy-2,6-dimethyl-phenyl)sulfonyl]-piperidin-2-yl]-methoxy]-pyrimidin-2-yl]-3-pyridin-4-yloxy-8-azabicyclo[3.2.1]octane], the inhibition at 10 µM is 74%.

Take `COc1cc(C)c(S(=O)(=O)N2CCCCC2COc2ccnc(N3CCN(CC4CCN(C)CC4)CC3)n2)c(C)c1` (stereo not shown) [H_CC-006, 4-[[1-(4-methoxy-2,6-dimethylphenyl)sulfonyl-2-pipendinyl]methoxy]-2-[4-[(1-methyl-4-pipendinyl)methyl]-1-piperazinyl]pyrimidine]: the “% inh. (rat B1R) 10 μM” value (% inhibition rat B1R at 10 μM) is reported as 61%.

Take `COc1cc(C)c(S(=O)(=O)N2CCC[C@H]2COc2ccnc(N3CCC4(CCN(Cc5ccccc5)C4)C3)n2)c(C)c1` (stereo partly drawn) [H_CC-023, 3-benzyl-7-[4-[[(2S)-1-(4-methoxy-2,6-dimethylphenyl)sulfonyl-2-pyrrolidinyl]methoxy]-2-pyrimidinyl]-3,7-diazaspiro[4.4]nonane]: the inhibition at 10 µM stood at 76%.

Consider `CCCCC1(N(C)C)CCN(c2ccnc(OCCN(C)S(=O)(=O)c3c(C)cc(OC)cc3C)n2)CC1` [G_CC-089, N-[2-[4-(4-butyl-4-dimethylamino-piperidin-1-yl)-pyrimidin-2-yl]oxy-ethyl]-4-methoxy-N,2,6-trimethyl-benzenesulfonic acid amide], for which the inhibition at 10 µM came out at 93%.

As to `COc1cc(C)c(S(=O)(=O)N2CCCCC2COc2ccnc(N3CCC(C)(N4CCOCC4)CC3)n2)c(C)c1` (stereo not shown) [H_CC-081, 4-[1-[4-[[1-[(4-methoxy-2,6-dimethyl-phenyl)sulfonyl]-piperidin-2-yl]-methoxy]-pyrimidin-2-yl]-4-methyl-piperidin-4-yl]-morpholine], the inhibition at 10 µM is 61%.
